Columns and labels:
bedstraw = assay: Test B pre/postemergence bedstraw; format: in vivo, Galium aparine
In short: (§1)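 Test chemicals in a non-phytotoxic solvent mixture with surfactant were sprayed preemergence onto planted seeds and postemergence onto plants 2 to 18 cm tall (1- to 4-leaf stage). After twelve to sixteen days in a greenhouse, injury was visually rated against untreated controls from 0 (no effect) to 10 (complete control).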

blackgrass = assay: Test B pre/postemergence blackgrass; format: in vivo, Alopecurus myosuroides
In short: as §1

surinam grass = assay: Test B pre/postemergence surinam grass; format: in vivo, Brachiaria decumbens
In short: as §1

corn = assay: Test B pre/postemergence corn; format: in vivo, Zea mays
In short: as §1

crabgrass = assay: Test B pre/postemergence crabgrass; format: in vivo, Digitaria sanguinalis
In short: as §1

giant foxtail = assay: Test B pre/postemergence giant foxtail; format: in vivo, Setaria faberii
In short: as §1

morningglory = assay: Test B pre/postemergence morningglory; format: in vivo, Ipomoea hederacea
In short: as §1

rape = assay: Test B pre/postemergence rape; format: in vivo, Brassica napus
In short: as §1

soybean = assay: Test B pre/postemergence soybean; format: in vivo, Glycine max
In short: as §1

velvetleaf = assay: Test B pre/postemergence velvetleaf; format: in vivo, Abutilon theophrasti
In short: as §1

wheat = assay: Test B pre/postemergence wheat; format: in vivo, Triticum aestivum
In short: as §1

wild oat = assay: Test B pre/postemergence wild oat; format: in vivo, Avena fatua
In short: as §1

purple nutsedge = assay: Test B pre/postemergence purple nutsedge; format: in vivo, Cyperus rotundus
In short: as §1

rice = assay: Test B flood test rice; format: in vivo, Oryza sativa
In short: (§2)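 Plants were grown to the 2-leaf stage before treatment with test chemical, then held in a greenhouse for twelve to sixteen days. Injury was visually rated against untreated controls on a 0–10 scale, where 0 is no effect and 10 is complete control.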

smallflower flatsedge = assay: Test B flood test smallflower flatsedge; format: in vivo, Cyperus difformis
In short: as §2

duck salad = assay: Test B flood test duck salad; format: in vivo, Heteranthera limosa
In short: as §2

[1] = Postemergence, Rate 62 g/ha, scale of 0 to 10, 0 is no effect, 10 is complete control
[2] = Postemergence, Rate 125 g/ha, scale 0 to 10, 0 is no effect, 10 is complete control
[3] = Postemergence, Rate 500 g/ha, scale 0 to 10, 0 is no effect, 10 is complete control
[4] = Preemergence, Rate 62 g/ha, scale of 0 to 10 where 0 is no effect and 10 is complete control
[5] = Preemergence, Rate 500 g/ha, scale of 0 to 10 where 0 is no effect and 10 is complete control
[6] = Rate 250 g/ha, Postemergence, scale of 0 to 10 where 0 is no effect and 10 is complete control
[7] = Preemergence, Rate 125 g/ha, scale 0 to 10, 0 is no effect, 10 is complete control
[8] = Rate 62 g/ha, flood test species, Pre-emergence, visual evaluation after twelve to sixteen days
[9] = Rate 125 g/ha, under heading Pre-emergence, flood test species, visual evaluation after twelve to sixteen days
[10] = Rate 250 g/ha, Pre-emergence (flood test species), scale 0 to 10, 0 is no effect, 10 is complete control
[11] = Rate 500 g/ha, Pre-emergence section of Table B, 0 to 10 scale (0 no effect, 10 complete control)

Structure (SMILES): CC(C)N(C(=O)n1oc(=O)n(CCC2OCCCO2)c1=O)c1ccc(Cl)cc1 [Compound 532]
- Bedstraw plant response rating (bedstraw; [1]): 0
- Bedstraw plant response rating (bedstraw; [2]): 0
- Plant response rating, Bedstraw (bedstraw; [3]): 0
- Plant response rating, Bedstraw (bedstraw; [4]): 0
- Bedstraw plant response rating (bedstraw; [5]): 0
- Plant response rating, Bedstraw (bedstraw; [6]): 0
- Blackgrass plant response rating (blackgrass; [1]): 0
- Blackgrass plant response rating (blackgrass; [2]): 0
- Plant response rating, Blackgrass (blackgrass; [3]): 0
- Plant response rating, Blackgrass (blackgrass; [4]): 0
- Blackgrass plant response rating (blackgrass; [7]): 0
- Blackgrass plant response rating (0 to 10 scale) (blackgrass; Preemergence, Rate 250 g/ha): 0
- Blackgrass plant response rating (blackgrass; [5]): 0
- Plant response rating, Blackgrass (blackgrass; [6]): 0
- B. signalgrass plant response rating (surinam grass; [1]): 0
- B. signalgrass plant response rating (surinam grass; [2]): 0
- Plant response rating, B. signalgrass (surinam grass; [3]): 0
- Plant response rating, B. signalgrass (surinam grass; [4]): 0
- B. signalgrass plant response rating (surinam grass; [7]): 0
- B. signalgrass plant response rating (0 to 10 scale, 0 is no effect, 10 is complete control) (surinam grass; Preemergence, Rate 250 g/ha): 0
- B. signalgrass plant response rating (surinam grass; [5]): 0
- Plant response rating, B. signalgrass (surinam grass; [6]): 0
- Corn plant response rating (corn; [1]): 2
- Corn plant response rating (corn; [2]): 0
- Plant response rating, Corn (corn; [3]): 2
- Plant response rating, Corn (corn; [4]): 0
- Corn plant response rating (corn; [7]): 0
- Corn plant response rating (0 to 10 scale) (corn; Preemergence, Rate 250 g/ha): 0
- Corn plant response rating (corn; [5]): 0
- Plant response rating, Corn (corn; [6]): 0
- Crabgrass plant response rating (crabgrass; [1]): 4
- Crabgrass plant response rating (crabgrass; [2]): 4
- Plant response rating, Crabgrass (crabgrass; [3]): 9
- Plant response rating, Crabgrass (crabgrass; [4]): 9
- Crabgrass plant response rating (crabgrass; [7]): 9
- Crabgrass plant response rating (0 to 10 scale) (crabgrass; Preemergence, Rate 250 g/ha): 10
- Crabgrass plant response rating (crabgrass; [5]): 10
- Plant response rating, Crabgrass (crabgrass; [6]): 7
- Giant foxtail plant response rating (giant foxtail; [1]): 0
- Giant foxtail plant response rating (giant foxtail; [2]): 4
- Plant response rating, Giant foxtail (giant foxtail; [3]): 8
- Plant response rating, Giant foxtail (giant foxtail; [4]): 10
- Giant foxtail plant response rating (giant foxtail; [7]): 10
- Giant foxtail plant response rating (0 to 10 scale) (giant foxtail; Preemergence, Rate 250 g/ha): 10
- Giant foxtail plant response rating (giant foxtail; [5]): 10
- Plant response rating, Giant foxtail (giant foxtail; [6]): 4
- Morningglory plant response rating (morningglory; [1]): 0
- Morningglory plant response rating (morningglory; [2]): 3
- Plant response rating, Morningglory (morningglory; [3]): 5
- Plant response rating, Morningglory (morningglory; [4]): 0
- Morningglory plant response rating (morningglory; [7]): 0
- Morningglory plant response rating (0 to 10 scale) (morningglory; Preemergence, Rate 250 g/ha): 0
- Morningglory plant response rating (morningglory; [5]): 0
- Plant response rating, Morningglory (morningglory; [6]): 5
- Rape plant response rating (rape; [1]): 0
- Rape plant response rating (rape; [2]): 0
- Plant response rating, Rape (rape; [3]): 2
- Plant response rating, Rape (rape; [4]): 0
- Rape plant response rating (rape; [7]): 0
- Rape plant response rating (0 to 10 scale) (rape; Preemergence, Rate 250 g/ha): 0
- Rape plant response rating (rape; [5]): 0
- Plant response rating, Rape (rape; [6]): 2
- Soybean plant response rating (soybean; [1]): 0
- Soybean plant response rating (soybean; [2]): 2
- Plant response rating, Soybean (soybean; [3]): 5
- Plant response rating, Soybean (soybean; [4]): 0
- Soybean plant response rating (soybean; [7]): 0
- Soybean plant response rating (0 to 10 scale) (soybean; Preemergence, Rate 250 g/ha): 0
- Soybean plant response rating (soybean; [5]): 0
- Plant response rating, Soybean (soybean; [6]): 5
- Velvetleaf plant response rating (velvetleaf; [1]): 0
- Velvetleaf plant response rating (velvetleaf; [2]): 0
- Plant response rating, Velvetleaf (velvetleaf; [3]): 2
- Plant response rating, Velvetleaf (velvetleaf; [4]): 0
- Velvetleaf plant response rating (velvetleaf; [7]): 0
- Velvetleaf plant response rating (0 to 10 scale) (velvetleaf; Preemergence, Rate 250 g/ha): 0
- Velvetleaf plant response rating (velvetleaf; [5]): 4
- Plant response rating, Velvetleaf (velvetleaf; [6]): 2
- Wheat plant response rating (wheat; [1]): 0
- Wheat plant response rating (wheat; [2]): 0
- Plant response rating, Wheat (wheat; [3]): 0
- Plant response rating, Wheat (wheat; [4]): 0
- Wheat plant response rating (wheat; [7]): 0
- Wheat plant response rating (0 to 10 scale) (wheat; Preemergence, Rate 250 g/ha): 0
- Wheat plant response rating (wheat; [5]): 0
- Plant response rating, Wheat (wheat; [6]): 0
- Wild oats plant response rating (wild oat; [1]): 0
- Wild oats plant response rating (wild oat; [2]): 0
- Plant response rating, Wild oats (wild oat; [3]): 0
- Plant response rating, Wild oats (wild oat; [4]): 0
- Wild oats plant response rating (wild oat; [7]): 0
- Wild oats plant response rating (0 to 10 scale) (wild oat; Preemergence, Rate 250 g/ha): 0
- Wild oats plant response rating (wild oat; [5]): 0
- Plant response rating, Wild oats (wild oat; [6]): 0
- Nutsedge plant response rating (purple nutsedge; [1]): 4
- Nutsedge plant response rating (purple nutsedge; [2]): 0
- Plant response rating, Nutsedge (purple nutsedge; [4]): 0
- Nutsedge plant response rating (purple nutsedge; [7]): 0
- Nutsedge plant response rating (0 to 10 scale) (purple nutsedge; Preemergence, Rate 250 g/ha): 0
- Nutsedge plant response rating (purple nutsedge; [5]): 0
- Plant response rating, Rice (0 to 10 scale, 0 is no effect, 10 is complete control) (rice; [8]): 0
- Rice plant response rating (0 to 10 scale, 0 is no effect, 10 is complete control) (rice; [9]): 1
- Rice plant response rating (rice; [10]): 9
- Rice plant response rating (rice; [11]): 8
- Plant response rating, S. Flatsedge (0 to 10 scale, 0 is no effect, 10 is complete control) (smallflower flatsedge; [8]): 9
- S. Flatsedge plant response rating (0 to 10 scale, 0 is no effect, 10 is complete control) (smallflower flatsedge; [9]): 8
- S. Flatsedge plant response rating (smallflower flatsedge; [10]): 9
- S. Flatsedge plant response rating (smallflower flatsedge; [11]): 9
- Plant response rating, Ducksalad (0 to 10 scale, 0 is no effect, 10 is complete control) (duck salad; [8]): 8
- Ducksalad plant response rating (0 to 10 scale, 0 is no effect, 10 is complete control) (duck salad; [9]): 8
- Ducksalad plant response rating (duck salad; [10]): 9
- Ducksalad plant response rating (duck salad; [11]): 9

Reference: patent US6737383B1, “Herbicidal oxadiazolidines” (priority 1999, dated 2004)
